The source of these data is patent publication US11040954B1, “CXCR3 receptor agonists” (RECEPTOS LLC, priority 2016, dated 2021).

The structures appear in SMILES notation. Some results are limits rather than exact numbers.

This test has as its target T1, CXCR3 (Homo sapiens, UniProt P49682).
T1 construct: host or cells: CHO-K1 (cAMP Hunter CHOK1 CXCR3 Gi cell line)
T1 sequence (P49682 1-368): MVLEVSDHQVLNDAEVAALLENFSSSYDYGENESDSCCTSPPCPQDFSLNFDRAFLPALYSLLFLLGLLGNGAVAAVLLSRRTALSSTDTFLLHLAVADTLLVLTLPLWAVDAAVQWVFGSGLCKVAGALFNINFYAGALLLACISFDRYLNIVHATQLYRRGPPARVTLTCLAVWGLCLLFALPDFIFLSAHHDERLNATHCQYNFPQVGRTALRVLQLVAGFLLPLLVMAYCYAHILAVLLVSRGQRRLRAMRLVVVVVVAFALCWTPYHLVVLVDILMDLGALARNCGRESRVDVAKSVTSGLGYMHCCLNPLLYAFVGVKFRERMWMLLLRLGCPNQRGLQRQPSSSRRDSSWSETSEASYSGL
Nature of the test: CXCR3 cAMP agonist assay (cAMP Hunter CHOK1 CXCR3 Gi cell line, forskolin-stimulated, HitHunter cAMP detection). It counts as cell-based. Conditions: cAMP Hunter CHOK1 CXCR3 Gi cells, 20 μM forskolin, 30 minutes; read-out: Activity (CXCR3 cAMP agonist assay compound EC50). The method, then:
The cAMP Hunter™ CHOK1 CXCR3 Gi cell line was purchased from DiscoveRx. Cells were seeded into a 96-well white assay plate at 50,000 cells/well/94 μl assay buffer (Hank's Buffered Saline Solution, 10 mM HEPES, 0.1% fatty acid-free BSA, pH 7.4) and immediately assayed in suspension. Forskolin was added to 20 μM (5 μl of 400 μM stock) simultaneously with a 12-point dose response curve of compound at 0-10 μM (1 μl of 100× stock in 100% DMSO), and cells were incubated for 30 minutes. A cAMP standard curve is run as an assay control. A CXCL11 dose response was included to determine maximum efficacy. Direct detection of cAMP was carried out using the DiscoveRx HitHunter cAMP kit according to manufacturer's instructions, and luminescence was read using a SpectraMax M5 plate reader.
Consider `COc1cc(F)c(C)cc1NC(=O)[C@H](CCN)NC(=O)[C@@H]1Cc2ccccc2CN1C(=O)CCC(=O)c1ccccc1` [Compound 2-60], for which the concentration giving a half-maximal response (EC50) (in general, the concentration giving half of the maximal effect) lay in the range of 50 to 250 nM.
`COc1c(NC(=O)[C@H](CCN)NC(=O)[C@@H]2Cc3ccccc3CN2C(=O)CCC(=O)c2ccccc2)ccc(C)c1C` [Compound 2-61]: the EC50 is greater than 500 nM.
With `COc1c(NC(=O)[C@H](CCN)NC(=O)[C@@H]2Cc3ccccc3CN2C(=O)CCC(=O)c2ccccc2)ccc2c1CCCC2` [Compound 2-62], the EC50 fell in the range of 50 to 250 nM.
Take `NCC[C@H](NC(=O)[C@@H]1Cc2ccccc2CN1C(=O)CCC(=O)c1ccccc1)C(=O)Nc1ccc2c(c1)OCO2` [Compound 2-63]: the EC50 lay in the range of 50 to 250 nM.
For `Cc1nc2ccc(NC(=O)[C@H](CCN)NC(=O)[C@@H]3Cc4ccccc4CN3C(=O)CCC(=O)c3ccccc3)cc2s1` [Compound 2-64] the value was 250 to 500 nM.
For `NCC[C@H](NC(=O)[C@@H]1Cc2ccccc2CN1C(=O)CCC(=O)c1ccccc1)C(=O)Nc1ccc2ncsc2c1` [Compound 2-65] the value was 50 to 250 nM; for `NCC[C@H](NC(=O)[C@@H]1Cc2ccccc2CN1C(=O)CCC(=O)c1ccccc1)C(=O)NC1Cc2ccccc2C1` [Compound 2-66], less than 50 nM.
For `NCC[C@H](NC(=O)[C@@H]1Cc2ccccc2CN1C(=O)CCC(=O)c1ccccc1)C(=O)Nc1cccc2c1CCC2` [Compound 2-67], the EC50 is less than 50 nM.
Turning to `NCC[C@H](NC(=O)[C@@H]1Cc2ccccc2CN1C(=O)CCC(=O)c1ccccc1)C(=O)Nc1ccc2c(c1)C(=O)CC2` [Compound 2-68], the EC50 was 50 to 250 nM.
For `NCC[C@H](NC(=O)[C@@H]1Cc2ccccc2CN1C(=O)CCC(=O)c1ccccc1)C(=O)Nc1ccc2c(c1)CCC2=O` [Compound 2-69] the value was greater than 500 nM; for `COc1cc(F)c(F)cc1NC(=O)[C@H](CCN)NC(=O)[C@@H]1Cc2ccccc2CN1C(=O)CCC(=O)c1ccccc1` [Compound 2-70], 250 to 500 nM; for `COc1cc(C)c(F)cc1NC(=O)[C@H](CCN)NC(=O)[C@@H]1Cc2ccccc2CN1C(=O)CCC(=O)c1ccccc1` [Compound 2-71], 50 to 250 nM.
Consider `CC1(C)CCc2cc(NC(=O)[C@H](CCN)NC(=O)[C@@H]3Cc4ccccc4CN3C(=O)CCC(=O)c3ccccc3)ccc21` [Compound 2-72], for which the EC50 was less than 50 nM.
Under `NCC[C@H](NC(=O)[C@@H]1Cc2ccccc2CN1C(=O)CCC(=O)c1ccccc1)C(=O)Nc1cc2c(cc1Cl)CCC2` [Compound 2-73] stands less than 50 nM; under `NCC[C@H](NC(=O)[C@@H]1Cc2ccccc2CN1C(=O)CCC(=O)c1ccccc1)C(=O)Nc1cc2c(cc1O)CCC2` [Compound 2-74], 50 to 250 nM.
For `CC1(C)Cc2ccc(NC(=O)[C@H](CCN)NC(=O)[C@@H]3Cc4ccccc4CN3C(=O)CCC(=O)c3ccccc3)cc2C1` [Compound 2-75] the value was 50 to 250 nM.
With `COc1cc(C(F)(F)F)c(C)cc1NC(=O)[C@H](CCN)NC(=O)[C@@H]1Cc2ccccc2CN1C(=O)CCC(=O)c1ccccc1` [Compound 2-76], the EC50 lay within 50 to 250 nM.
For `NCC[C@H](NC(=O)[C@@H]1Cc2ccccc2CN1C(=O)CCC(=O)c1ccccc1)C(=O)Nc1ccc2c(c1Cl)CCC2` [Compound 2-77], the EC50 was in the range of 50 to 250 nM.
For `NCC[C@H](NC(=O)[C@@H]1Cc2ccccc2CN1C(=O)CCC(=O)c1ccccc1)C(=O)Nc1cc2c(cc1F)CCC2` [Compound 2-78] the value was less than 50 nM.
Under `COc1cc(C)c(C)cc1NC(=O)[C@H](CCN)NC(=O)[C@@H]1Cc2ccccc2CN1C(=O)CCC(=O)c1ccccc1` [Compound 2-79] stands less than 50 nM.
`NCC[C@H](NC(=O)[C@@H]1Cc2ccccc2CN1C(=O)CCC(=O)c1ccccc1)C(=O)Nc1ccc2scnc2c1` [Compound 2-80]: the EC50 was 250 to 500 nM.
Take `NCC[C@H](NC(=O)[C@@H]1Cc2ccccc2CN1C(=O)CCC(=O)c1ccccc1)C(=O)NC1CCc2ccccc2C1` (stereo partly drawn) [Compound 2-81]: the EC50 lay in the range of 50 to 250 nM.
Under `CN1Cc2ccc(NC(=O)[C@H](CCN)NC(=O)[C@@H]3Cc4ccccc4CN3C(=O)CCC(=O)c3ccccc3)cc2C1` [Compound 2-82] stands less than 50 nM; under `NC(=O)NCCC[C@H](NC(=O)[C@@H]1Cc2ccccc2CN1C(=O)CCC(=O)c1ccccc1)C(=O)Nc1ccc(Cl)c(Cl)c1` [Compound 3-1, (S)—N—((S)-1-((3,4-dichlorophenyl)amino)-1-oxo-5-ureidopentan-2-yl)-2-(4-oxo-4-phenylbutanoyl)-1,2,3,4-tetrahydroisoquinoline-3-carboxamide], 50 to 250 nM.
For `Cc1cc(NC(=O)[C@H](CCNC(=N)N)NC(=O)[C@@H]2Cc3ccccc3CN2C(=O)CCC(=O)c2ccccc2)ccc1Cl` [Compound 3-2] the value was less than 50 nM; for `Cc1cc(NC(=O)[C@H](Cc2ccncc2)NC(=O)[C@@H]2Cc3ccccc3CN2C(=O)CCC(=O)c2ccccc2)ccc1Cl` [Compound 3-4], 50 to 250 nM; for `Cc1cc(NC(=O)[C@H](Cc2ccccn2)NC(=O)[C@@H]2Cc3ccccc3CN2C(=O)CCC(=O)c2ccccc2)ccc1Cl` [Compound 3-5], 50 to 250 nM.
Turning to `NC(=O)NCCCC[C@H](NC(=O)[C@@H]1Cc2ccccc2CN1C(=O)CCC(=O)c1ccccc1)C(=O)Nc1ccc(Cl)c(Cl)c1` [Compound 3-6], the EC50 was 250 to 500 nM.
Under `Cc1cc(NC(=O)[C@H](CCN(C(C)C)C(C)C)NC(=O)[C@@H]2Cc3ccccc3CN2C(=O)CCC(=O)c2ccccc2)ccc1Cl` [Compound 3-7] stands less than 50 nM; under `Cc1cc(NC(=O)[C@H](CCN2CCCC2)NC(=O)[C@@H]2Cc3ccccc3CN2C(=O)CCC(=O)c2ccccc2)ccc1Cl` [Compound 3-8], less than 50 nM; under `Cc1cc(NC(=O)[C@H](CCN2CCCCC2)NC(=O)[C@@H]2Cc3ccccc3CN2C(=O)CCC(=O)c2ccccc2)ccc1Cl` [Compound 3-9], less than 50 nM.
`Cc1cc(NC(=O)[C@H](Cc2ccnc(N)c2)NC(=O)[C@@H]2Cc3ccccc3CN2C(=O)CCC(=O)c2ccccc2)ccc1Cl` [Compound 3-10]: the EC50 is 50 to 250 nM.
For `COc1nccc(C[C@H](NC(=O)[C@@H]2Cc3ccccc3CN2C(=O)CCC(=O)c2ccccc2)C(=O)Nc2ccc(Cl)c(C)c2)n1` [Compound 3-11], the EC50 was 250 to 500 nM.
Regarding `Cc1cc(NC(=O)[C@H](CC(N)=O)NC(=O)[C@@H]2Cc3ccccc3CN2C(=O)CCC(=O)c2ccccc2)ccc1Cl` [Compound 3-12], the EC50 lay within 50 to 250 nM.
For `Cc1cc(NC(=O)[C@H](CCC(N)=O)NC(=O)[C@@H]2Cc3ccccc3CN2C(=O)CCC(=O)c2ccccc2)ccc1Cl` [Compound 3-13] the value was 50 to 250 nM.
For `Cc1cc(NC(=O)[C@H](Cc2cnc(N)nc2)NC(=O)[C@@H]2Cc3ccccc3CN2C(=O)CCC(=O)c2ccccc2)ccc1Cl` [Compound 3-14] the value was 250 to 500 nM; for `Cc1cc(NC(=O)[C@@H](Cc2cc3ccccc3[nH]2)NC(=O)[C@@H]2Cc3ccccc3CN2C(=O)CCC(=O)c2ccccc2)ccc1Cl` [Compound 4-5], greater than 500 nM.
Under `Cc1cc(NC(=O)[C@H](Cc2c[nH]cn2)NC(=O)[C@@H]2Cc3ccccc3CN2C(=O)CCC(=O)c2ccccc2)ccc1Cl` [Compound 4-8] stands less than 50 nM; under `Cc1cc(NC(=O)[C@@](C)(CCCCN)NC(=O)[C@@H]2Cc3ccccc3CN2C(=O)CCC(=O)c2ccccc2)ccc1Cl` [Compound 4-9], 50 to 250 nM.
